Data: ChEMBL document CHEMBL5678796, “A highly potent and selective farnesyltransferase inhibitor ABT-100 in preclinical studies” (Anticancer Drugs, 2005)

Experiments:
HCT-116 [1] = test: Antitumor activity against human HCT-116 cells xenografted in nu/nu CD1 mouse assessed as tumor volume at 12.5 mg/kg, sc preinoculated with cells for 5 days followed by once daily compound administration for 21 days and measured on day 25 (reference value: 1569 +/- 165 mm^3); assay type: functional; conditions: time 25 day
[2] = Inhibition of recombinant bovine FTase incubated for 30 mins in presence of [3H]FPP by SPA based Topcount scintillation plate reader analysis; set-up: species or system Bos taurus
[3] = Inhibition of recombinant human FTase incubated for 30 mins in presence of [3H]FPP by SPA based Topcount scintillation plate reader analysis
Bos taurus = species: Bos taurus; test: Selectivity index, ratio of IC50 for inhibition of bovine GGTase 1 to IC50 for inhibition of recombinant bovine FTase
[4] = Selectivity index, ratio of IC50 for inhibition of bovine GGTase 1 to IC50 for inhibition of recombinant human FTase
HCT-116 [5] = test: Antitumor activity against human HCT-116 cells xenografted in nu/nu CD1 mouse assessed as increase in life span at 12.5 mg/kg, sc preinoculated with cells for 5 days followed by once daily compound administration for 21 days and measured on day 25 relative to vehicle in time to 1 cm^3 tumor; assay type: functional; conditions: HCT-116, 600 h, time 25 day
HCT-116 [6] = test: Inhibition of anchorage-independent growth in human HCT-116 cells assessed as inhibition of colony formation incubated for 14 days in presence of 10% FBS by imaging based soft agar colony formation assay; assay type: functional, cell-based
[7] = Half-life in rat at 5 mg/kg, iv; assay type: ADME, organism-based; conditions: in vivo
[8] = Volume of distribution in rat at 5 mg/kg, iv; assay type: ADME, organism-based; conditions: in vivo
[9] = AUC in rat at 5 mg/kg, iv; assay type: ADME, organism-based; conditions: in vivo
HCT-116 [10] = test: Antitumor activity against human HCT-116 cells xenografted in nu/nu CD1 mouse assessed as tumor volume at 50 mg/kg, sc preinoculated with cells for 14 days followed by once daily compound administration for 21 days and measured on day 40 (reference value: 2973 +/- 593 mm^3); assay type: functional; conditions: time 40 day
[11] = Clearance in rat at 5 mg/kg, iv; assay type: ADME, organism-based; conditions: in vivo
[12] = Volume of distribution in dog at 2.5 mg/kg, iv; assay type: ADME, organism-based, Canis lupus familiaris; conditions: in vivo
[13] = AUC in dog at 2.5 mg/kg, iv; assay type: ADME, organism-based, Canis lupus familiaris; conditions: in vivo
[14] = AUC in rat at 5 mg/kg, po; assay type: ADME, organism-based; conditions: in vivo
[15] = Cmax in rat at 25 mg/kg, po; assay type: ADME, organism-based; conditions: in vivo
[16] = Half-life in dog at 2.5 mg/kg, po; assay type: ADME, organism-based, Canis lupus familiaris; conditions: in vivo
[17] = Cmax in dog at 2.5 mg/kg, po; assay type: ADME, organism-based, Canis lupus familiaris; conditions: in vivo
[18] = Oral bioavailability in dog at 2.5 mg/kg; assay type: ADME, organism-based, Canis lupus familiaris; conditions: in vivo
HCT-116 [19] = test: Antitumor activity against human HCT-116 cells xenografted in nu/nu CD1 mouse assessed as tumor volume at 25 mg/kg, sc preinoculated with cells for 5 days followed by once daily compound administration for 21 days and measured on day 25 (reference value: 1569 +/- 165 mm^3); assay type: functional; conditions: time 25 day
HCT-116 [20] = test: Antitumor activity against human HCT-116 cells xenografted in nu/nu CD1 mouse assessed as tumor volume at 6.25 mg/kg, sc preinoculated with cells for 5 days followed by once daily compound administration for 21 days and measured on day 25 (reference value: 1569 +/- 165 mm^3); assay type: functional; conditions: time 25 day
HCT-116 [21] = test: Antitumor activity against human HCT-116 cells xenografted in nu/nu CD1 mouse assessed as tumor volume at 100 mg/kg, sc preinoculated with cells for 5 days followed by once every 2 days compound administration for 11 times and measured on day 22 (reference value: 1557 +/- 370 mm^3); assay type: functional; conditions: time 22 day
HCT-116 [22] = test: Antitumor activity against human HCT-116 cells xenografted in nu/nu CD1 mouse assessed as reduction in tumor volume by measuring test to control ratio at 50 mg/kg, sc preinoculated with cells for 5 days followed by once every 2 days compound administration for 11 times and measured on day 22; assay type: functional; conditions: time 22 day
HCT-116 [23] = test: Inhibition of VEGF secretion in human HCT-116 cells incubated for 72 hrs by ELISA; assay type: functional, cell-based; conditions: dose 0.1-3 µmol/L
Mus musculus [24] = test: Antiangiogenic activity in human recombinant VEGF-stimulated CF1 mouse corneal model assessed as inhibition of new blood growth area at 100 mg/kg, sc prestimulated with VEGF followed by compound administration and measured on day 7 by slit lamp biomicroscopic analysis relative to control; assay type: functional; conditions: CF1, 168 h, time 7 day
Mus musculus [25] = test: Antiangiogenic activity in human recombinant bFGF-stimulated CF1 mouse corneal model assessed as inhibition of new blood growth area at 50 mg/kg, sc prestimulated with bFGF followed by compound administration and measured on day 5 by slit lamp biomicroscopic analysis relative to control; assay type: functional; conditions: CF1, 120 h, time 5 day
Mus musculus [26] = test: Antiangiogenic activity in human recombinant bFGF-stimulated CF1 mouse corneal model assessed as inhibition of new blood growth area at 100 mg/kg, sc prestimulated with bFGF followed by compound administration and measured on day 5 by slit lamp biomicroscopic analysis relative to control; assay type: functional; conditions: CF1, 120 h, time 5 day
[27] = Inhibition of GGTase in H-Ras transformed mouse NIH3T3 cells using Rap 1A as substrate assessed as inhibition of substrate prenylation in presence of 10% bovine serum by immunoblot analysis; assay type: cell-based
[28] = Inhibition of FTase in human DLD-1 cells expressing moderate level of P-gp1 using Ras as substrate assessed as inhibition of substrate post-translation processing in presence of 10% FBS by immunoblot analysis; assay type: cell-based
[29] = Inhibition of FTase in human DLD-1 cells expressing moderate level of P-gp1 using Ras as substrate assessed as inhibition of substrate post-translation processing in presence of 10% human serum by immunoblot analysis; assay type: cell-based
[30] = Ratio of EC50 for inhibition of FTase in human HCT-15 cells expressing high level of P-gp1 using Ras as substrate assessed as inhibition of substrate post-translation processing in presence of 20% human serum to EC50 for inhibition of FTase in human HCT-15 cells expressing high level of P-gp1 using Ras as substrate assessed as inhibition of substrate post-translation processing in presence of 10% …; conditions: condition cancer

**Q.** For `Cn1cncc1[C@](O)(COc1ccc(C#N)cc1-c1ccc(OC(F)(F)F)cc1)c1ccc(C#N)cc1` [ABT-100], which Activity (HCT-116 [1]) is on record?
**A.** 721 mm3

**Q.** What about the IC50 [2] of the same compound?
**A.** 0.13 nM

**Q.** And the IC50 [3]?
**A.** 0.05 nM

**Q.** What about the Ratio IC50 (Bos taurus) of the same compound?
**A.** > 100000

**Q.** And the Ratio IC50 [4]?
**A.** > 100000

**Q.** And the ILS at 12.5 mg/kg (HCT-116 [5])?
**A.** 61%

**Q.** What about the EC50 (HCT-116 [6]; HCT-116, 336 h) of the same compound?
**A.** 6.1 nM

**Q.** What about the inhibition (HCT-116 [6]; time 14.0 day) of the same compound?
**A.** Dose-Dependent Effect

**Q.** And the half-life [7]?
**A.** 2.3 h

**Q.** And the Vd [8]?
**A.** 5.6 L/kg

**Q.** What about the AUC [9] of the same compound?
**A.** 3010 ng·h/mL

**Q.** And the Activity (HCT-116 [10])?
**A.** 1530 mm3

**Q.** What about the clearance [11] of the same compound?
**A.** 16.7 mL/min/kg

**Q.** And the Vd [12]?
**A.** 3.3 L/kg

**Q.** What about the AUC [13] of the same compound?
**A.** 7700 ng·h/mL

**Q.** What about the AUC [14] of the same compound?
**A.** 450 ng·h/mL

**Q.** And the Cmax [15]?
**A.** 740 ng/mL

**Q.** What about the half-life [16] of the same compound?
**A.** 5.9 h

**Q.** And the Cmax [17]?
**A.** 280 ng/mL

**Q.** What about the bioavailability [18] of the same compound?
**A.** 35.1%

**Q.** And the Activity (HCT-116 [19])?
**A.** 553 mm3

**Q.** And the Activity (HCT-116 [20])?
**A.** 899 mm3

**Q.** What about the Activity (HCT-116 [21]) of the same compound?
**A.** 691 mm3

**Q.** What about the T/C (HCT-116 [22]) of the same compound?
**A.** 65%

**Q.** And the inhibition (HCT-116 [23])?
**A.** Dose-Dependent Effect

**Q.** And the inhibition in vivo at 100 mg/kg (Mus musculus [24])?
**A.** 39%

**Q.** What about the inhibition in vivo at 50 mg/kg (Mus musculus [25]) of the same compound?
**A.** 34%

**Q.** And the inhibition in vivo at 100 mg/kg (Mus musculus [26])?
**A.** 49%

**Q.** And the EC50 [27]?
**A.** > 30000 nM

**Q.** And the EC50 [28]?
**A.** 0.26 nM

**Q.** And the EC50 [29]?
**A.** 0.4 nM

**Q.** What about the “Ratio EC50” value [30] of the same compound?
**A.** 1.5
